# Reference: ChEMBL document CHEMBL5625206, “Design, synthesis, and evaluation of novel pleuromutilin aryl acrylate derivatives as promising broad-spectrum antibiotics especially for combatting multi-drug resistant gram-negative bacteria” (Eur J Med Chem, 2023)
# Calls of active or inactive are those of the source. The calls are words filed in the database; no cut-off is given here.
# Assays:
# [1] = Toxicity in fasted female Sprague-Dawley rat assessed as relative lung weight ratio at 331 mg/kg, IG measured for 14 days (reference value: 0.534 +/- 0025); type: organism-based; details: in vivo, po, 336 h, time 14 day
# Escherichia coli [2] = experiment: Disruption of cell membrane integrity in Escherichia coli ATCC 25922 assessed as rough cell surface at MIC incubated for 4 hrs by FESEM analysis; type: functional, organism-based
# [3] = Toxicity in fasted female Sprague-Dawley rat assessed as body weight at 148 mg/kg, IG measured after 14 days (reference value: 214.3 +/- 9.8 g); type: organism-based; details: in vivo, po, 336 h, time 14 day
# [4] = Toxicity in fasted male Sprague-Dawley rat assessed as body weight at 100 mg/kg, IG measured on same day (reference value: 212.7 +/- 13.2 g); type: organism-based; details: in vivo, po
# [5] = Toxicity in fasted male Sprague-Dawley rat assessed as relative lung weight ratio at 224 mg/kg, IG measured for 14 days (reference value: 0.437 +/- 0.064); type: organism-based; details: in vivo, po, 336 h, time 14 day
# [6] = Toxicity in neutropenic Kunming mouse model infected with methicillin-resistant Staphylococcus aureus ATCC 33591 assessed as survival rate at 10 mg/kg, ip measured after 7 days relative to control; type: organism-based; details: in vivo, 168 h, time 7 day
# Klebsiella pneumoniae = experiment: Antibacterial activity against multidrug-resistant Klebsiella pneumoniae 893 clinical isolate assessed as bacterial growth inhibition incubated for 24 hrs by CLSI based broth microdilution method; type: functional
# Staphylococcus aureus [7] = experiment: Inhibition of biofilm formation of methicillin-resistant Staphylococcus aureus ATCC 33591 at MIC incubated for 24 hrs by crystal violet staining based analysis relative to control; type: functional
# [8] = Toxicity in fasted male Sprague-Dawley rat assessed as relative kidney weight ratio at 148 mg/kg, IG measured for 14 days (reference value: 0.820 +/- 0.072); type: organism-based; details: in vivo, po, 336 h, time 14 day
# Escherichia coli [9] = experiment: Induction of cell damage in Escherichia coli ATCC 25922 assessed as decrease in intracellular ATP concentration at MIC incubated for 30 mins by fluorescence based analysis relative to control; type: functional; parameters: scale not given: the % may be the effect or the level left; details: 0.5 h
# Staphylococcus aureus [10] = experiment: Antibacterial activity against methicillin-resistant Staphylococcus aureus 575 clinical isolate assessed as bacterial growth inhibition incubated for 24 hrs by CLSI based broth microdilution method; type: functional
# [11] = Toxicity in fasted female Sprague-Dawley rat assessed as body weight at 331 mg/kg, IG measured on same day (reference value: 165.2 +/- 8.1 g); type: organism-based; details: in vivo, po
# [12] = Toxicity in fasted male Sprague-Dawley rat assessed as animal growth rate at 100 mg/kg, IG measured for 14 days (reference value: 46.53 +/- 3.19 g); type: organism-based; details: in vivo, po, 336 h, time 14 day
# Escherichia coli [13] = experiment: Induction of extracellular electrical conductivity in Escherichia coli ATCC 25922 at MIC incubated for 8 hrs relative to control; type: functional
# Staphylococcus aureus [14] = experiment: Antibacterial activity against methicillin-resistant Staphylococcus aureus ATCC 33591 infected in neutropenic Kunming mouse model assessed as reduction in infection-induced liver damage at 20 mg/kg, ip measured after 7 days; type: functional, organism-based; details: time 7.0 day
# [15] = Toxicity in fasted male Sprague-Dawley rat assessed as body weight at 331 mg/kg, IG measured after 14 days (reference value: 311.2 +/- 13.6 g); type: organism-based; details: in vivo, po, 336 h, time 14 day
# [16] = Toxicity in fasted female Sprague-Dawley rat assessed as body weight at 100 mg/kg, IG measured after 14 days (reference value: 214.3 +/- 9.8 g); type: organism-based; details: in vivo, po, 336 h, time 14 day
# Staphylococcus aureus [17] = experiment: Induction of cell damage in methicillin-resistant Staphylococcus aureus ATCC 33591 assessed as fold increase in extracellular ATP concentration at MIC incubated for 30 mins by fluorescence based analysis relative to control; type: functional; details: 0.5 h
# [18] = Toxicity in fasted Sprague-Dawley rat assessed as mortality rate at 148 mg/kg, IG measured for 14 days; type: organism-based; details: in vivo, po, time 14 day
# [19] = Toxicity in fasted male Sprague-Dawley rat assessed as animal growth rate at 148 mg/kg, IG measured for 14 days (reference value: 46.53 +/- 3.19 g); type: organism-based; details: in vivo, po, 336 h, time 14 day
# [20] = Toxicity in fasted male Sprague-Dawley rat assessed as relative liver weight ratio at 500 mg/kg, IG measured for 14 days (reference value: 3.616 +/- 0.286); type: organism-based; details: in vivo, po, 336 h, time 14 day
# [21] = Toxicity in fasted male Sprague-Dawley rat assessed as body weight at 224 mg/kg, IG measured after 7 days (reference value: 260.5 +/- 12.7 g); type: organism-based; details: in vivo, po, 168 h, time 7 day
# [22] = Toxicity in fasted male Sprague-Dawley rat assessed as relative kidney weight ratio at 500 mg/kg, IG measured for 14 days (reference value: 0.820 +/- 0.072); type: organism-based; details: in vivo, po, 336 h, time 14 day
# Staphylococcus aureus [23] = experiment: Induction of cell damage in methicillin-resistant Staphylococcus aureus ATCC 33591 assessed as fold increase in extracellular ATP concentration at 2 times MIC incubated for 30 mins by fluorescence based analysis relative to control; type: functional; details: 0.5 h
# [24] = Toxicity in fasted male Sprague-Dawley rat assessed as relative testis weight ratio at 331 mg/kg, IG measured for 14 days (reference value: 0.993 +/- 0.052); type: organism-based; details: in vivo, po, 336 h, time 14 day
# [25] = Toxicity in neutropenic Kunming mouse model infected with methicillin-resistant Staphylococcus aureus ATCC 33591 assessed as survival rate at 20 mg/kg, ip measured after 7 days relative to control; type: organism-based; details: in vivo, 168 h, time 7 day
# [26] = Toxicity in fasted male Sprague-Dawley rat assessed as body weight at 224 mg/kg, IG measured on same day (reference value: 212.7 +/- 13.2 g); type: organism-based; details: in vivo, po
# [27] = Toxicity in fasted male Sprague-Dawley rat assessed as body weight at 500 mg/kg, IG measured after 7 days (reference value: 260.5 +/- 12.7 g); type: organism-based; details: in vivo, po, 168 h, time 7 day
# Mesomycoplasma hyorhinis = experiment: Anti-mycoplasma activity against Mycoplasma hyorhinis BTS-7-NCTC10130 assessed as bacterial growth inhibition incubated for 7 days; type: functional; details: BTS-7-NCTC10130, 168 h, time 7 day
# Escherichia coli [28] = experiment: Inhibition of biofilm formation of Escherichia coli ATCC 25922 incubated for 24 hrs by crystal violet staining based analysis; type: functional, organism-based
# [29] = Toxicity in fasted Sprague-Dawley rat assessed as mortality rate at 224 mg/kg, IG measured for 14 days; type: organism-based; details: in vivo, po, time 14 day
# [30] = Toxicity in fasted male Sprague-Dawley rat assessed as body weight at 500 mg/kg, IG measured after 14 days (reference value: 311.2 +/- 13.6 g); type: organism-based; details: in vivo, po, 336 h, time 14 day
# Escherichia coli [31] = experiment: Induction of cell damage in Escherichia coli ATCC 25922 assessed as intracellular pH at 2 times MIC incubated for 30 mins by fluorescence based analysis (reference value: 6.05 +/- 0.10); type: functional; details: 0.5 h
# [32] = Toxicity in fasted female Sprague-Dawley rat assessed as relative spleen weight ratio at 100 mg/kg, IG measured for 14 days (reference value: 0.223 +/- 0.019); type: organism-based; details: in vivo, po, 336 h, time 14 day
# [33] = Toxicity in fasted male Sprague-Dawley rat assessed as relative heart weight ratio at 148 mg/kg, IG measured for 14 days (reference value: 0.396 +/- 0.043); type: organism-based; details: in vivo, po, 336 h, time 14 day
# [34] = Toxicity in fasted female Sprague-Dawley rat assessed as body weight at 224 mg/kg, IG measured on same day (reference value: 165.2 +/- 8.1 g); type: organism-based; details: in vivo, po
structure (smiles),measurement,setting,value
C=C[C@]1(C)C[C@@H](OC(=O)COC(=O)/C=C/c2ccc(N(C)C)cc2)[C@]2(C)[C@H](C)CC[C@]3(CCC(=O)[C@H]32)[C@@H](C)[C@@H]1O,Ratio,[1],0.528
same,Activity,Escherichia coli [2],Active
same,Activity,[3],210.5 g
same,Activity,[4],215.3 g
same,Ratio,[5],0.411
same,Survival,[6],70%
same,MIC,Klebsiella pneumoniae,64 µg/mL
same,inhibition (INH),Staphylococcus aureus [7],56.51%
same,Ratio,[8],0.799
same,Activity,Escherichia coli [9],50.75%
same,MIC,Staphylococcus aureus [10],8 µg/mL
same,Activity,[11],171.3 g
same,Activity,[12],46.18%
same,Activity,Escherichia coli [13],15.45%
same,Activity,Staphylococcus aureus [14],Active
same,Activity,[15],304.9 g
same,Activity,[16],214.6 g
same,fold change (FC),Staphylococcus aureus [17],4.01
same,mortality at 336 h,[18],0%
same,Activity,[19],45.63%
same,Ratio,[20],3.551
same,Activity,[21],257.1 g
same,Ratio,[22],0.759
same,fold change (FC),Staphylococcus aureus [23],3.21
same,Ratio,[24],1
same,Survival,[25],90%
same,Activity,[26],210.1 g
same,Activity,[27],251.3 g
same,MIC,Mesomycoplasma hyorhinis,0.004 µg/mL
same,inhibition,Escherichia coli [28],Dose-Dependent Effect
same,mortality at 336 h,[29],0%
same,Activity,[30],296.8 g
same,pH,Escherichia coli [31],3.23
same,Ratio,[32],0.226
same,Ratio,[33],0.379
same,Activity,[34],168.5 g
